Laboratory results as given in EP2272817A1, “PAI-1 INHIBITOR” (Institute of Medicinal Molecular Design, Inc., priority 2008, dated 2009).

The molecules below were run against recombinant human PAI-1 (Homo sapiens, UniProt P05121) (assay: Test Example 2: Human PAI-1 Inhibitory Activity (pH 7.4 HEPES buffer, 10 minutes incubation with two-chain tPA)). Settings: read-out: Inhibition Rate of PAI-1 Activity (%).
Assay type: biochemical
Design: purchased Molecular Innovations, Inc
Method: 0.1 M HEPES, 0.1 M NaCl. 1 mM EDTA. 0.1 % Polyethylene glycol 8,000 (Hampton Research Corporation),
2 mM Dimethyldecylphoshine oxide [Apo-10] (Fluka Corporation)

Sequence of recombinant human PAI-1 (P05121 24-402): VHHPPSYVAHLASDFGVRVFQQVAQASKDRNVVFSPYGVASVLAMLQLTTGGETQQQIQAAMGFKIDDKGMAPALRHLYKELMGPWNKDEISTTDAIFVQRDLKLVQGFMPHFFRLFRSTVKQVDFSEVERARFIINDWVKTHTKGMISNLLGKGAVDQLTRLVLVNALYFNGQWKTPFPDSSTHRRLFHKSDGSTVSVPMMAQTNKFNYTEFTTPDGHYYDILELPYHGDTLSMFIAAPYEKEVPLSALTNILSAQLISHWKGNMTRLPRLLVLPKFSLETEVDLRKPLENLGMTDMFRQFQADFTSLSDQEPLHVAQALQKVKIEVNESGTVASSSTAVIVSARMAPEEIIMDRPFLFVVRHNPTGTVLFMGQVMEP

inhibition at 0.1 µM [%]	inhibition at 0.3 µM [%]	inhibition at 1 µM [%]	inhibition at 3 µM [%]	inhibition at 10 µM [%]	inhibition at 25 µM [%]	SMILES
0	12	87	98			CC(C)(C)c1ccc(Oc2cc(Oc3ccc(OC(F)(F)F)cc3)ccc2OCC(=O)O)cc1 [Compound 538]
0	1	73	94			O=C(O)/C=C/c1cc(-c2ccc(OC(F)(F)F)cc2)ccc1OCCCCCOc1ccc(-c2ccc(OC(F)(F)F)cc2)cc1/C=C/C(=O)O [Compound 543]
0	3	56	92			O=C(O)CCc1cc(-c2ccc(OC(F)(F)F)cc2)ccc1OCCCCCOc1ccc(-c2ccc(OC(F)(F)F)cc2)cc1CCC(=O)O [Compound 544]
4	17	97	> 99			CC(C)(C)c1ccc(Sc2cc(-c3ccc(OC(F)(F)F)cc3)ccc2C(=O)O)cc1 [Compound 547]
0	16	95	> 99			CC(C)(C)c1ccc(Sc2cc(-c3ccc(OC(F)(F)F)cc3)ccc2C(=O)C(=O)O)cc1 [Compound 548]
23	22	84	> 99			CC(C)(C)c1ccc(C(=O)c2cc(-c3ccc(OC(F)(F)F)cc3)ccc2OCC(=O)O)cc1 [Compound 549]
0	2	81	> 99			CC(C)(C)c1ccc(Cc2cc(-c3ccc(OC(F)(F)F)cc3)ccc2OCC(=O)O)cc1 [Compound 550]
0	4	92	> 99			CC(C)(C)c1ccc(CCc2cc(-c3ccc(OC(F)(F)F)cc3)ccc2OCC(=O)O)cc1 [Compound 551]
		9	18	78	> 99	O=C(O)CC(=O)N(Cc1ccccc1)c1ccc(-c2ccc(OC(F)(F)F)cc2)cc1F [Compound 602]
		0	20	36	46	CC(C)(C)c1ccc(CN(C(=O)CCCC(=O)O)c2ccc(-c3ccc(OC(F)(F)F)cc3)cc2)cc1 [Compound 604]
		11	59	95	95	CC(C)(C)c1ccc(CN(C(=O)CC(=O)O)c2ccc(-c3ccc(OC(F)(F)F)cc3)cc2)cc1 [Compound 608]
		49	94	97	86	CC(C)(C)c1ccc(N(CC(=O)O)c2ccccc2Oc2ccc(OC(F)(F)F)cc2)cc1 [Compound 610]
		5	13	45	81	O=C(O)C(=O)N(Cc1ccc(-c2ccc(OC(F)(F)F)cc2)cc1)c1ccccc1 [Compound 611]
		7	25	84	> 99	CC(C)(C)c1ccc(N(Cc2ccc(-c3ccccc3)cc2)C(=O)C(=O)O)cc1 [Compound 612]
		43	98	> 99	95	CC(C)(C)c1ccc(-c2ccc(CN(C(=O)C(=O)O)c3ccc(OC(F)(F)F)cc3)cc2)cc1 [Compound 615]
		6	64	> 99	> 99	CC(C)(C)c1ccc(CN(C(=O)C(=O)O)c2ccc(C(=O)Nc3ccc(OC(F)(F)F)cc3)cc2)cc1 [Compound 617]
		0	24	78	> 99	CN(C(=O)c1ccc(N(Cc2ccc(C(C)(C)C)cc2)C(=O)C(=O)O)cc1)c1ccc(OC(F)(F)F)cc1 [Compound 618]
		0	14	57	> 99	CC(C)(C)c1ccc(CN(C(=O)C(=O)O)c2ccc(N3CCN(c4ccccc4)CC3)cc2)cc1 [Compound 627]
		40	> 99	> 99	90	CC(C)(C)c1ccc(CN(C(=O)C(=O)O)c2ccc(N3CCN(c4ccc(OC(F)(F)F)cc4)CC3)cc2)cc1 [Compound 628]
0	9	31	97			O=C(O)C(=O)N(Cc1ccc(-c2ccc(OC(F)(F)F)cc2)cc1)c1ccccc1-c1ccccc1 [Compound 632]
11	11	39	61			O=C(O)CCCCCCOc1ccc(-c2ccc(OC(F)(F)F)cc2)cc1N(CCCCc1ccccc1)C(=O)C(=O)O [Compound 633]

inhibition at 0.1 µM [%]	inhibition at 0.3 µM [%]	inhibition at 1 µM [%]	inhibition at 3 µM [%]	inhibition at 10 µM [%]	inhibition at 25 µM [%]	SMILES
17	37	> 99	92			O=C(O)C(=O)N(CCCCc1ccccc1)c1cc(-c2ccc(OC(F)(F)F)cc2)ccc1OC1C2CC3CC(C2)CC1C3 (centres unmarked) [Compound 634]
14	30	45	91			CC(C)(C)c1ccc(Oc2cc(-c3ccc(OC(F)(F)F)cc3)ccc2N(CCCCc2ccccc2)C(=O)C(=O)O)cc1 [Compound 635]
2	21	72	81			CC(C)(C)c1ccc(Oc2ccc(-c3ccc(OC(F)(F)F)cc3)cc2N(CCCCc2ccccc2)C(=O)C(=O)O)cc1 [Compound 636]
0	5	80	71			CCCCC1CCC(Oc2ccc(-c3ccc(OC(F)(F)F)cc3)cc2N(CCCCc2ccccc2)C(=O)C(=O)O)CC1 (centres unmarked) [Compound 637]
5	15	57	> 99			O=C(O)C(=O)N(CCCCc1ccccc1)c1cc(-c2ccc(OC(F)(F)F)cc2)ccc1Oc1ccccc1 [Compound 638]
6	12	91	87			CC(C)[C@@H]1CC[C@@H](C)C[C@H]1Oc1ccc(-c2ccc(OC(F)(F)F)cc2)cc1N(CCCCc1ccccc1)C(=O)C(=O)O [Compound 639]
0	19	92	92			CCCCCOc1ccc(-c2ccc(OC(F)(F)F)cc2)cc1N(CCCCc1ccccc1)CC(=O)O [Compound 640]
9	53	95	95			CCCCC(C(=O)O)N(Cc1ccc(C(C)(C)C)cc1)c1cccc(-c2ccc(OC(F)(F)F)cc2)c1 (centres unmarked) [Compound 641]
16	57	94	93			CCCCC(C(=O)O)N(Cc1ccc(C(C)(C)C)cc1)c1ccc(-c2ccc(OC(F)(F)F)cc2)cc1 (centres unmarked) [Compound 642]
6	26	95	> 99			CCCCCOc1ccc(-c2ccc(OC(F)(F)F)cc2)cc1CN(C(=O)C(=O)O)c1ccc(C(C)(C)C)cc1 [Compound 645]
4	15	38	86			O=C(O)CCCCCCCCOc1ccc(-c2ccc(OC(F)(F)F)cc2)cc1N(CCCCc1ccccc1)C(=O)C(=O)O [Compound 646]
27	43	95	98			CCCCCOc1ccc(-c2ccc(OC(F)(F)F)cc2)cc1CN(CC(=O)O)c1ccc(C(C)(C)C)cc1 [Compound 647]
4	23	86	89			CCCCCOc1cc(-c2ccc(OC(F)(F)F)cc2)ccc1CN(C(=O)C(=O)O)c1ccc(C(C)(C)C)cc1 [Compound 648]
10	64	96	97			CCCCCOc1cc(-c2ccc(OC(F)(F)F)cc2)ccc1CN(CC(=O)O)c1ccc(C(C)(C)C)cc1 [Compound 649]
16	40	> 99	> 99			CCCCCCCOc1cc(N(CCCCc2ccccc2)C(=O)C(=O)O)ccc1-c1ccc(OC(F)(F)F)cc1 [Compound 650]
0	0	15	74			COc1ccc(-c2ccc(OC(F)(F)F)cc2)cc1N(CCCCc1ccccc1)C(=O)C(=O)O [Compound 651]
4	19	> 99	> 99			CCCCCOc1cc(N(CCCCc2ccccc2)C(=O)C(=O)O)ccc1-c1ccc(OC(F)(F)F)cc1 [Compound 654]
3	0	44	97			CCCCCOc1ccc(-c2ccc(OC(F)(F)F)cc2)cc1N(CCCOCc1ccccc1)C(=O)C(=O)O [Compound 655]
24	64	95	88			O=C(O)C(=O)N(CCCCc1ccccc1)c1cc(-c2ccc(OC(F)(F)F)cc2)ccc1OCCCC1CCCCC1 [Compound 656]
15	20	99	> 99			CCCCCN(C(=O)C(=O)O)c1cc(-c2ccc(OC(F)(F)F)cc2)ccc1OCCCOc1ccccc1 [Compound 657]
